Data on six compounds can be found in patent US7998948B2, “Pharmaceutical composition for treating esophageal cancer” (Eisai R&D Management Co., Ltd., priority 2007, dated 2011).

Holding throughout (format): cell-based
The subject of assay [1] is OE33 human esophageal cancer cells. The assay can be described thus: Inhibitory action against proliferation of human esophageal cancer cells (OE33). The following applies: OE33, 72 h, 0E33 cells, RPMI1640 with 10% FBS, 3 days incubation, Cell Counting Kit-8, read-out: concentration of the test substance required to inhibit 50% of cell proliferation (IC50), 0E33. On the procedure:
(§1) Human esophageal cancer cells (OE19, OE21 and OE33) were purchased from Dainippon Sumitomo Pharma Co., Ltd. OE19, OE21 or was suspended in RPMI1640 medium (purchased from Sigma) containing 10% FBS. The cell suspension (2×10^4 cells/ml) was dispensed into a 96-well plate (purchased from FALCON; product No. 353075) by 0.1 ml/well, and incubated at 37° C. in a 5% CO2 incubator overnight. After the incubation, 0.1 ml of the test substance diluted with RPMI1640 medium containing 10% FBS was added to each well, which was further incubated for 3 days in the 5% CO2 incubator (37° C.). After the incubation, 10 μl of Cell Counting Kit-8 (purchased from DOJINDO Laboratories) was added to each well, which were incubated for about 2 hours in the 5% CO2 incubator (37° C.). After the incubation, the absorbance of the each well was measured using a plate reader MTP-500 (Corona Electric Co., Ltd) with a measurement wavelength of 450 nm and a control wavelength of 660 nm. A ratio of absorbance (%) of each well with the test substance against the wells without the test substance was determined, and based on this ratio, the concentration of the test substance required to inhibit 50% of cell proliferation (IC50; μM) was determined and the results are shown in Table 1.
A general note: Formazan colour is commonly taken as a measure of viable cells.

Assay [2] concerns OE19 human esophageal cancer cells. The assay can be described thus: Inhibitory action against proliferation of human esophageal cancer cells (OE19). The following applies: OE19, 72 h, 0E19 cells, RPMI1640 with 10% FBS, 3 days incubation, Cell Counting Kit-8, read-out: concentration of the test substance required to inhibit 50% of cell proliferation (IC50), 0E19. On the procedure:
as §1

Assay [3] concerns OE21 human esophageal cancer cells. The assay can be described thus: Inhibitory action against proliferation of human esophageal cancer cells (OE21). The following applies: OE21, 72 h, 0E21 cells, RPMI1640 with 10% FBS, 3 days incubation, Cell Counting Kit-8, read-out: concentration of the test substance required to inhibit 50% of cell proliferation (IC50), 0E21. On the procedure: as §1

Bounds are passed on as bounds.

On to `CN1CCC(N(C)C(=O)Nc2cc(Oc3cc(F)c(NC(=O)C4(C(=O)Nc5ccc(F)cc5)CC4)cc3F)ccn2)CC1` [N-(2,5-Difluoro-4-{[2-({[methyl(1-methylpiperidin-4-yl)amino]carbonyl}amino)pyridin-4-yl]oxy}phenyl)-N′-(4-fluorophenyl)cyclopropane-1,1-dicarboxamide], for which the IC50 in assay [1] came out at 0.14 µM; in assay [2], 2.3 µM; in assay [3] it was 1.7 µM.

On to `CN1CCN(C2CCN(C(=O)Nc3cc(Oc4ccc(NC(=O)C5(C(=O)Nc6ccc(F)cc6)CC5)c(F)c4)ccn3)CC2)CC1` [N-(2-Fluoro-4-{[2-({[4-(4-methylpiperazin-1-yl)piperidin-1-yl]carbonyl}amino)pyridin-4-yl]oxy}phenyl)-N′-(4-fluorophenyl)cyclopropane-1,1-dicarboxamide], for which the IC50 in assay [1] was determined as 1.6 µM; in assay [2] it was 3.6 µM; in assay [3] it was 5.5 µM.

In the case of `O=C(Nc1cc(Oc2cc(F)c(NC(=O)C3(C(=O)Nc4ccc(F)cc4)CC3)cc2F)ccn1)N1CC(CO)C1` [N-(2,5-Difluoro-4-{[2-({[3-(hydroxymethyl)azetidin-1-yl]carbonyl}amino)pyridin-4-yl]oxy}phenyl)-N′-(4-fluorophenyl)cyclopropane-1,1-dicarboxamide], the IC50 worked out at 0.25 µM in assay [1], 3.2 µM in assay [2] and 7.4 µM in assay [3].

On to `O=C(Nc1cc(Oc2ccc(NC(=O)C3(C(=O)Nc4ccc(F)cc4)CC3)c(F)c2)ccn1)N1CCC1` [N-[4-({2-[(Azetidin-1-ylcarbonyl)amino]pyridin-4-yl}oxy)-2-fluorophenyl]-N′-(4-fluorophenyl)cyclopropane-1,1-dicarboxamide], for which the IC50 was 0.18 µM in assay [1], 4.2 µM in assay [2] and greater than 10 µM in assay [3].

In the case of `O=C(Nc1cc(Oc2cc(F)c(NC(=O)C3(C(=O)Nc4ccc(F)cc4)CC3)cc2F)ccn1)N1CC(O)C1` [N-{2,5-Difluoro-4-[(2-{[(3-hydroxyazetidin-1-yl)carbonyl]amino}pyridin-4-yl)oxy]phenyl}-N′-(4-fluorophenyl)cyclopropane-1,1-dicarboxamide], the IC50 in assay [1] came out at 0.24 µM; in assay [2], 5.2 µM; in assay [3], 6.4 µM.

For the compound `CN1CCN(C2CCN(C(=O)Nc3cc(Oc4cc(F)c(NC(=O)C5(C(=O)Nc6ccc(F)cc6)CC5)cc4F)ccn3)CC2)CC1` [N-(2,5-Difluoro-4-{[2-({[4-(4-methylpiperazin-1-yl)piperidin-1-yl]carbonyl}amino)pyridin-4-yl]oxy}phenyl)-N′-(4-fluorophenyl)cyclopropane-1,1-dicarboxamide], the IC50 in assay [1] was found to be 0.67 µM; in assay [2], 3.5 µM; in assay [3] it was 3 µM.
